Experimental data published in patent US11179408B2, “Use of cyanoglucosides and pharmaceutical formulations thereof in the treatment of diabetes” (UNIVERSIDADE ESTADUAL PAULISTA JULIO DE MESQUITA FILHO, priority 2016, dated 2021).

Tests used:
diabetic mice [1] = assay: Fasting blood glucose in streptozotocin diabetic mice; assay type: in vivo, Male Swiss mice; details: for fasting blood glucose: streptozotocin diabetic mice, end of treatment, p<0.05
Protocol: The hydroalcoholic extract as obtained in Example 1 and the major compound lithospermoside (BH-21) as obtained in Example 2 were evaluated for their pharmacological activity in reducing fasting blood glucose and improving glucose tolerance in diabetic animals as described below.
(§1) The major compound of the cyanoglicoside fraction, BH-21 was tested at a concentration of 10 mg/kg in diabetic mice by gavage daily for 28 days. Male Swiss mice were divided into two groups and treated daily for 28 days by gavage: a control group (CTLSAL) that received saline vehicle (0.9% NaCl) and a group called streptozotocin, previously treated with this drug (150 mg/kg). Animals with blood glucose higher than 250 mg/dl were included in the study and divided into three experimental groups. One group, named streptozotocin saline (STZSAL) received saline (0.9% NaCl); another group of animals treated with metformin (STZMET) at the dose of 300 mg/kg and a third group (LITHOS) received the compound BH-21 (lithospermoside), diluted in saline at a dose of 10 mg/kg body weight.

diabetic mice [2] = assay: Intraperitoneal glucose tolerance test (IPGTT) in diabetic mice; assay type: in vivo; details: streptozotocin diabetic mice; for IPGTT area under the curve (AUC): compared to CTLSAL group
Protocol: The leaves extract obtained under Example 1 was tested at a concentration of 400 mg/kg. The mice were treated daily for days by gavage with the extract as well as metformin (300 mg/kg), and at the end of treatment they underwent an […] glucose tolerance test.
The intraperitoneal glucose tolerance assay (IPGTT) was used to evaluate the glucose disappearance from the plasma of 8-10 hours fasted mice at time 0 and after glucose intraperitoneal injection (2 g/kg) in 15, 30, 60, 90 and 120 min as represented on FIG. 2A where curves represent: CTLSAL: normoglycemic mice treated orally with saline vehicle (0.9% NaCl), STZSAL: diabetic mice treated orally with saline vehicle (0.9% NaCl), STZMET: diabetic mice treated orally with metformin at the concentration of 300 mg/kg, STZEXT: diabetic mice treated orally with 70% EtOH extract at a concentration of 400 mg/kg. […] Data expressed as mean±standard error of the mean. ANOVA followed by Tukey post test. a vs. CTLSAL, b vs. STZSAL, c vs. STZMET, N=8-12, p<0.05.
as §1

normal rats = details: oral, 200 mg/kg, 1 h after treatment; cited from earlier work
[3] = test system: alloxan-induced diabetic rats; details: oral, 50, 100 and 200 mg/kg; cited from earlier work
[4] = 10 mg/kg by gavage daily for 28 days

Compound: N#C/C=C1/C=C[C@@H](O)[C@H](O)[C@H]1OC1OC(CO)C(O)C(O)C1O (stereo in doubt) [BH-21, (2Z)-2-[(4R,5S,6S)-4,5-dihydroxy-6-[[(2S,3S,4R,5R,6S)-3,4,5-trihydroxy-6-(hydroxymethyl)-2-oxanyl]oxy]-1-cyclohex-2-enylidene]acetonitrile]
- in vivo hypoglycemic activity relative to metformin (diabetic mice [1]; higher than metformin): about 30 times
- fasting blood glucose (diabetic mice [1]; [4]): significantly lower than in STZSAL and STZMET groups but greater than the CTLSAL group
- IPGTT area under the curve (AUC) (diabetic mice [2]; [4]): no significant difference
- IPGTT blood glucose values after intraperitoneal administration of glucose (diabetic mice [2]; 10 mg/kg daily for 28 days, vs metformin 300 mg/kg group, p<0.05): significantly lower than the STZMET group at all times

Compound: C[C@@H]1O[C@@H](Oc2cc(O)c3c(=O)c(O[C@@H]4O[C@@H](C)[C@H](O)[C@@H](O)[C@H]4O)c(-c4ccc(O)cc4)oc3c2)[C@H](O)[C@H](O)[C@H]1O [kaempferitrin, kaempferol-3,7-O—(R)-dirhamnoside]
- blood glucose lowering (normal rats): blood glucose lowering was observed only with the higher dose
- hypoglycemic effect [3]: evident at all doses tested

Compound: CN(C)C(=N)N=C(N)N [metformin]
- fasting blood glucose (diabetic mice [1]; metformin 300 mg/kg daily for 28 days, vs CTLSAL): significantly increased
- IPGTT area under the curve (AUC) (diabetic mice [2]; metformin 300 mg/kg daily for 28 days): no significant difference
